Molecules are shown by their SMILES.

This data set is described as follows: Human HepG2 cell viability assay in 384 well format. The data set is classed as toxicity, cell-based. Further details: dose 125 nL, time 70.5 hour; cytotoxicity at 70.5 h: concentration not given beside the values. The note with it: HepG2 cells, read-out: Inhibition.
For the compound `Cc1ncsc1CN1CC[C@H]2OCC[C@@]2(C(=O)NCC2CC2)C1`, the cytotoxicity at 70.5 h was -3.48%. `O=C1COC2(CCN(Cc3ccncc3)CC2)CN1CC1CC1`: the cytotoxicity at 70.5 h was 4.04%.

Regarding `CCn1cc2c(n1)C(COC)CN(C(=O)COc1ccccc1)C2` (stereo not drawn), the cytotoxicity at 70.5 h was 6.15%.

As for `COc1ccccc1OCC(=O)N1CCC[C@]2(C[C@@H](OC)CO2)C1`, the cytotoxicity at 70.5 h amounted to 10.6%. On to `Cc1csc([C@@H]2C[C@@H]3CCN(C(=O)c4cnccn4)C[C@H]3O2)n1`, for which the cytotoxicity at 70.5 h was -4.76%. With `Cn1ccnc1CN1CCC2(CC1)CC(Nc1ccccn1)CO2` (stereo not drawn), the cytotoxicity at 70.5 h was -2.46%. With `CCC1=N[C@@]2(CC[C@@H]3CN(S(=O)(=O)CC(C)C)C[C@@H]32)C(=O)N1CC` the figure was 1.37%. With `Cc1ccsc1C(=O)N1CC(C(=O)NC(C)C)C2(CCOCC2)C1` (stereo not drawn), the cytotoxicity at 70.5 h worked out at 1.65%.

As to `O=C1CCC2(CCCN(c3ncc(F)cn3)CC2)N1Cc1ccccc1` (stereo not drawn), the cytotoxicity at 70.5 h was found to be 1.63%. Regarding `O=C(c1c[nH]cn1)N1CCCn2c(nnc2Cn2cccc2)C1`, the cytotoxicity at 70.5 h is -1.3%. Take `Cc1ccccc1OCC(=O)N1CC[C@]2(C[C@@H](OCC3CC3)CO2)C1`: the cytotoxicity at 70.5 h was -1.4%. In the case of `CN(C)S(=O)(=O)N1C[C@@H](OCc2ccccn2)[C@H]2OCCC[C@H]21`, the cytotoxicity at 70.5 h is -3.83%.

As for `Cn1ncc2c1C(COCC1CC1)CN(Cc1cccnc1)C2` (stereo not drawn), the cytotoxicity at 70.5 h is -4.66%. For the compound `COc1ccc(CN2Cc3cnn(C)c3C(COCC3CC3)C2)cc1` (stereo not drawn), the cytotoxicity at 70.5 h was -1.5%.

With `COCC1CN(C(=O)C2=CCCC2)Cc2cnn(CC3CC3)c21` (stereo not drawn), the cytotoxicity at 70.5 h was -2.82%. Take `Cc1cnc(C(=O)N2CC[C@H]3C[C@@H](c4nc(C)cs4)O[C@@H]3C2)cn1`: the cytotoxicity at 70.5 h was 7.61%.

Regarding `O=C(Cc1ccccc1)N1CCn2cc(Cn3cncn3)nc2C1`, the cytotoxicity at 70.5 h was determined as 9.06%.

In the case of `CO[C@H]1CC[C@H]2[C@H]1OCCN2C(=O)C1=CCCC1`, the cytotoxicity at 70.5 h turned out to be 9.7%.

Take `Cn1nc(C#N)c2c1CN(C(=O)c1ccco1)CCC2`: the cytotoxicity at 70.5 h amounted to 14.2%. As to `COCC1CC2(CCN(C(=O)c3ccc(F)c(Cl)c3)CC2)CO1` (stereo not drawn), the cytotoxicity at 70.5 h amounted to 13%.

Regarding `O=C(c1cnccn1)N1CCC2(CCCN(Cc3ccoc3)C2)C1` (stereo not drawn), the cytotoxicity at 70.5 h was 11.3%. The result for `O=S(=O)(C1CC1)N1CCC2(CC1)CC(Oc1ccccn1)CO2` (stereo not drawn) reads 2.03%; that for `COCC1CC2(CCN(C(=O)c3oc4ccccc4c3C)CC2)CO1` (stereo not drawn), 3.46%.

For the compound `Cn1nc(C#N)c2c1CN(C(=O)c1ccsc1)CCC2`, the cytotoxicity at 70.5 h was 5.67%. With `Cc1nc(CN2CCO[C@H]3CN(C(=O)c4cccn4C)C[C@H]32)cs1`, the cytotoxicity at 70.5 h is 5.54%. The result for `Cc1nc(CN2CCO[C@H]3CN(C(=O)c4ccncc4)C[C@H]32)cs1` reads 6.5%; that for `Cc1nn(CCc2nnc(NCC(C)C)s2)c(C)c1Br`, -16%; that for `Cc1cc(C(F)(F)F)nn1C(C)C(=O)NN1CCOCC1` (stereo not drawn), -7.56%. On to `Cc1nn(CC(=O)N2CCN(Cc3cn(C)nc3C)CC2)cc1Br`, for which the cytotoxicity at 70.5 h was found to be 25.1%. For `CCn1ncc(CN(C)C(=O)c2ccn(C)n2)c1C`, the cytotoxicity at 70.5 h is -6.74%.

For the compound `Cc1nn(CC(=O)N2CCN(Cc3cnn(C)c3C)CC2)cc1Br`, the cytotoxicity at 70.5 h was 29.4%.

As to `Cc1nn(Cc2ccc(C(=O)NCCCN3CCCC3=O)o2)c(C)c1Br`, the cytotoxicity at 70.5 h is -7.69%.

As for `Cc1cc(C(F)(F)F)nn1CC(C)C(=O)Nc1cccnc1` (stereo not drawn), the cytotoxicity at 70.5 h is -3.81%. Regarding `CCn1nc(C)c(CN(C)S(=O)(=O)c2cnn(C)c2)c1C`, the cytotoxicity at 70.5 h was -5.84%. With `CS(=O)(=O)N1CCC(C(=O)NCCCn2cc(Cl)cn2)CC1`, the cytotoxicity at 70.5 h is -13.1%. As to `CCS(=O)(=O)Nc1ccn(Cc2ccc(F)cc2Cl)n1`, the cytotoxicity at 70.5 h is -8.72%. `CCS(=O)(=O)Nc1cnn(Cc2cccc(F)c2)c1`: the cytotoxicity at 70.5 h was -4.79%. Consider `Cn1cc(-c2cc(-c3cnn(C)c3)n(CC(=O)NC3CC3)n2)cn1`, for which the cytotoxicity at 70.5 h is -20.4%. As to `CCc1nnc(SCc2nonc2C)n1C`, the cytotoxicity at 70.5 h is -11.2%. On to `Cn1nc(C(=O)N2CCOCC2)cc1C(=O)Nc1c(Cl)cccc1Cl`, for which the cytotoxicity at 70.5 h is -2.69%. As for `Cn1cc(NC(=O)c2cc3c(s2)CCCC3)cn1`, the cytotoxicity at 70.5 h is -0.0582%. With `O=C(NC1CCCC1)c1cnn2c(-c3ccco3)ccnc12`, the cytotoxicity at 70.5 h is -8.37%.

In the case of `Cc1nn(CCNC(=O)c2cc(C3CC3)[nH]n2)c(C)c1Cl`, the cytotoxicity at 70.5 h is 3.19%. As to `Cc1c(S(=O)(=O)NCC(C)Cn2cc(Cl)cn2)cnn1C` (stereo not drawn), the cytotoxicity at 70.5 h is 1.36%.

Regarding `Cc1nn(C)cc1S(=O)(=O)N(CCc1ccccc1)Cc1ccn(C)n1`, the cytotoxicity at 70.5 h was -4.26%. Turning to `CCn1cc(S(=O)(=O)N(CCc2ccccc2)Cc2ccn(C)n2)cn1`, the cytotoxicity at 70.5 h was -11.1%. In the case of `O=C(Cn1ccc(C(=O)O)n1)Nc1c(Cl)cccc1Cl`, the cytotoxicity at 70.5 h is -3.45%. Regarding `COc1ccc2nc(NC(=O)c3c(C(=O)O)cnn3C)sc2c1`, the cytotoxicity at 70.5 h was -8.88%. As to `CCn1ccc(-c2cc(C(=O)O)n3ncc(Cl)c3n2)n1`, the cytotoxicity at 70.5 h is -10.2%. In the case of `CCn1ccc(-c2cc(C(=O)O)n3nc(C(F)(F)F)c(Br)c3n2)n1`, the cytotoxicity at 70.5 h was -3.3%.

Take `CCn1ncc2c(C(F)F)cc(-c3ccn(C)n3)nc21`: the cytotoxicity at 70.5 h is -7.69%. Take `Cc1nn(C)cc1-c1cc(C(F)F)nc(NC2CCCCC2)n1`: the cytotoxicity at 70.5 h is -11.8%.

Consider `O=C(NCC(F)F)c1cc(-c2ccccc2)nc2ncnn12`, for which the cytotoxicity at 70.5 h is -1.07%. Turning to `CCOc1ccc2oc(-c3cnn(C)c3C)c(O)c(=O)c2c1`, the cytotoxicity at 70.5 h was -3.56%. As to `Nc1no[n+]([O-])c1C(=O)NCc1cccnc1`, the cytotoxicity at 70.5 h is -0.714%.

`Nc1no[n+]([O-])c1C(=O)NCc1ccccn1`: the cytotoxicity at 70.5 h was -13.7%. With `N#Cc1cn[nH]c1NCc1cc(Br)ccc1O` the figure was -9.76%; with `N#Cc1c[nH]nc1NCc1ccc2c(c1)OCO2`, -10.8%.

`O=C(Cn1cc(I)cn1)N1CCCCCC1`: the cytotoxicity at 70.5 h was -3.07%. In the case of `N#Cc1cn[nH]c1NCc1cc(I)cc(I)c1O`, the cytotoxicity at 70.5 h was -9.83%. With `CCOC(=O)Cn1ccc(NC(=O)Cc2ccccc2F)n1`, the cytotoxicity at 70.5 h is -18.1%. Consider `NC(=O)c1c[nH]nc1NCc1ccc2c(c1)OCO2`, for which the cytotoxicity at 70.5 h is -18.7%. `COc1cc(NCc2ccc(Cl)cc2)c(-c2nn[nH]n2)cc1OC`: the cytotoxicity at 70.5 h is -0.792%. Regarding `COc1cc(NCc2ccncc2)c(-c2nn[nH]n2)cc1OC`, the cytotoxicity at 70.5 h was -1.7%. As to `COc1ccc(-c2cc(C3(O)CCN(C)CC3)on2)cc1`, the cytotoxicity at 70.5 h was -0.517%.

`Fc1ccccc1-c1nnn(CCCc2nn[nH]n2)n1`: the cytotoxicity at 70.5 h is -5.54%. Regarding `Clc1cccc(-n2cnnn2)c1N1CCCC1`, the cytotoxicity at 70.5 h came to 3.81%. In the case of `CC(C)=CCCC(C)(O)c1cc(C(N)=O)no1` (stereo not drawn), the cytotoxicity at 70.5 h was -9.16%. With `COC(=O)C1=NOC(Cc2cc(OC)c3c(c2)OCO3)C1` (stereo not drawn) the figure was -20.2%; with `COc1c(Br)c(CC2CC(CO)=NO2)c(Br)c2c1OCO2` (stereo not drawn), -7.56%; with `O=C1CC(c2cccnc2)c2c(sc3c2CCCC3)N1` (stereo not drawn), -3.62%. The result for `O=C1CC(c2ccncc2)c2c(sc3c2CCCC3)N1` (stereo not drawn) reads -13.1%. For `CCOC(=O)c1cc(C(C)(O)CCC=C(C)C)on1` (stereo not drawn), the cytotoxicity at 70.5 h was -9.61%. In the case of `CCOC(=O)C1=NOC(Cc2cc(OC)c3c(c2)OCO3)C1` (stereo not drawn), the cytotoxicity at 70.5 h was 18.8%. As to `O=C1CC(c2ccc(C(=O)O)cc2)c2c(sc3c2CCCC3)N1` (stereo not drawn), the cytotoxicity at 70.5 h was -9.3%. With `COc1cc(C2SCC(=O)Nc3[nH]ncc32)cc2c1OCO2` (stereo not drawn), the cytotoxicity at 70.5 h was -10.8%. For the compound `N#CCC1CC(c2ccc(F)cc2)=NO1` (stereo not drawn), the cytotoxicity at 70.5 h is -10%. The result for `CNc1[nH]nc(N)c1C(=O)Nc1ccc(OC)cc1` reads 1.52%; that for `O=C1CC(c2ccc3c(c2)OCO3)c2snc(C(=O)O)c2N1` (stereo not drawn), -10.6%; that for `O=C1CC(c2ccc(C(F)(F)F)cc2)c2snc(C(=O)O)c2N1` (stereo not drawn), -15.6%. Take `COc1ccc2c(=O)ccn(CC(=O)O)c2c1`: the cytotoxicity at 70.5 h came out at 1.58%. For `COC(=O)CCn1ccc(=O)c2ccccc21`, the cytotoxicity at 70.5 h was -5.76%. The result for `CCS(=O)(=O)N1C[C@@H]2CN(Cc3cnn(C)c3)CCO[C@@H]2C1` reads 2.4%; that for `CCCS(=O)(=O)N1C[C@@H]2CN(Cc3cnn(C)c3)CCO[C@@H]2C1`, -1.12%; that for `COCC1CN(C(=O)COc2ccc(C)cc2)Cc2cn(C)nc21` (stereo not drawn), -2.9%. As to `Cc1occc1C(=O)N1C[C@@H]2[C@@H](C1)OCC(=O)N2Cc1cccnc1`, the cytotoxicity at 70.5 h is -2.83%.

In the case of `O=C(NCC1OCCc2cn(CC3CCOCC3)nc21)c1ccsc1` (stereo not drawn), the cytotoxicity at 70.5 h was determined as 5%. In the case of `O=C(O)[C@]12CCCN(Cc3ccsc3)C[C@H]1CN(c1ncccn1)C2`, the cytotoxicity at 70.5 h stood at 1.99%. Regarding `CCc1ccc(CN2CCC3(CCCN(C(=O)c4cnccn4)C3)C2)o1` (stereo not drawn), the cytotoxicity at 70.5 h turned out to be 2.89%.

With `O=C(Nc1cccnc1)[C@H]1CN(C2CCCC2)C[C@H]2OCC[C@@H]12`, the cytotoxicity at 70.5 h is -2.64%.

For the compound `CN1CC(=O)N(c2ccccc2)CC12CCN(Cc1nccn1C)C2` (stereo not drawn), the cytotoxicity at 70.5 h was found to be 4.89%. With `CN1CC(=O)N(c2cccc(F)c2)CC12CCN(Cc1cncn1C)C2` (stereo not drawn) the figure was -4.15%. With `CN1CC(=O)N(c2cccc(F)c2)CC12CCN(Cc1nccs1)C2` (stereo not drawn) the figure was -1.43%; with `Cn1ccnc1CN1CCC2(CC1)CN(Cc1cccnc1)C(=O)CO2`, -5.54%; with `Cn1cc(CN2CCO[C@@H]3CN(Cc4ccoc4)C[C@@H]3C2)cn1`, -0.642%. In the case of `O=C(c1c[nH]cn1)N1CCCn2c(CN3CCCCC3)nnc2C1`, the cytotoxicity at 70.5 h is -1.43%.

Consider `O=C(O)[C@]12CCCN(Cc3ccsc3)C[C@H]1CN(c1ccccn1)C2`, for which the cytotoxicity at 70.5 h was found to be 13.5%. With `CCn1[nH]c(C)c2c(C(F)(F)C(F)(F)F)cc(=O)nc1-2`, the cytotoxicity at 70.5 h was -1.83%.

The values are drawn from ChEMBL document CHEMBL3507680, “University of Dundee, Gates Library screen for HepG2 cell viability”.
